Earlier results in patent publication US20250000794A1, “IMPROVED DRUG PROCESSING METHODS TO INCREASE DRUG LOADING” (BOARD OF REGENTS, THE UNIVERSITY OF TEXAS SYSTEM, priority 2021, published 2025).

Details: water

NCCCC[C@H](N)C(=O)O [L-lysine]
Solubility (g/100 mL) Room Temperature: 150 g/100 mL
